Holding throughout (type): binding
The target in assay [1] is T1, Hp-FAR-2 (Heligmosomoides polygyrus, UniProt A0A183GLK6).
T1 construct: mature Hp-FAR-2, amino acids 18–180, N-terminal 6-His-tag
The experiment in a line: DAUDA displacement fluorescence competition ([…] excess, […]).

Assay [2] concerns the target T1, Hp-FAR-2. The experiment in a line: fluorescence titration of DAUDA with purified Hp-FAR-2 (blue shift).
The target of assay [3] is T1, Hp-FAR-2. The experiment in a line: DAUDA displacement fluorescence competition ([…] and […]).
The target in assay [4] is T1, Hp-FAR-2. In words: retinol fluorescence titration with purified Hp-FAR-2.

The text below walks through data of PMC12543159, “Characterization and ligand binding properties of a fatty acid- and retinol- binding protein (Hp-FAR-2) from Heligmosomoides polygyrus” (PLOS Neglected Tropical Diseases, 2025).

Molecules are shown by their SMILES.

A word on the Kd: it is the concentration at which binding is half-saturated.

T1 sequence (A0A183GLK6 entry or part of it): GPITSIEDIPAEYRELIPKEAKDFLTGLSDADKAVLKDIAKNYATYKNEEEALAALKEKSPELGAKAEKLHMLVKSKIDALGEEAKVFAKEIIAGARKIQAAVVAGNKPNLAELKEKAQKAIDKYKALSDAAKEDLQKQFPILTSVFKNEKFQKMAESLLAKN

Consider `CCCCC/C=C\C/C=C\C/C=C\C/C=C\CCCC(=O)O` [AA, arachidonic acid], for which, on Hp-FAR-2 [1], the “DAUDA displacement fluorescence competition (10-fold excess, 10 μM)” value is “All fatty acids except α-linolenic acid significantly displaced DAUDA compared to DAUDA alone”.

As for `CN(C)c1cccc2c(S(=O)(=O)NCCCCCCCCCCC(=O)O)cccc12` [DAUDA], the Kd at Hp-FAR-2 [2] turned out to be 3.16 µM.

Turning to `CC/C=C\C/C=C\C/C=C\C/C=C\C/C=C\C/C=C\CCC(=O)O` [DHA, docosahexaenoic acid], the “DAUDA displacement fluorescence competition (1:1 and 1:10)” value on Hp-FAR-2 [3] is “Oleic acid, linoleic acid, and docosahexaenoic acid all significantly displaced DAUDA”.

Regarding `CC/C=C\C/C=C\C/C=C\C/C=C\C/C=C\CCCC(=O)O` [EPA, eicosapentaenoic acid], the “DAUDA displacement fluorescence competition (10-fold excess, 10 μM)” value at Hp-FAR-2 [1] is “All fatty acids except α-linolenic acid significantly displaced DAUDA compared to DAUDA alone”.

Take `CCCCC/C=C\C/C=C\CCCCCCCC(=O)O` [LA, linoleic acid]: the “DAUDA displacement fluorescence competition (1:1 and 1:10)” value at Hp-FAR-2 [3] was “Oleic acid, linoleic acid, and docosahexaenoic acid all significantly displaced DAUDA”.

With `CCCCCCCC/C=C\CCCCCCCC(=O)O` [OA, oleic acid], the “DAUDA displacement fluorescence competition (1:1 and 1:10)” value on Hp-FAR-2 [3] was “Oleic acid, linoleic acid, and docosahexaenoic acid all significantly displaced DAUDA”.

Take `CCCCCCCCCCCCCCCC(=O)O` [PA, palmitic acid]: the “DAUDA displacement fluorescence competition (10-fold excess, 10 μM)” value on Hp-FAR-2 [1] is reported as “All fatty acids except α-linolenic acid significantly displaced DAUDA compared to DAUDA alone”.

`CC1=C(/C=C/C(C)=C/C=C/C(C)=C/CO)C(C)(C)CCC1` [retinol] returned a Kd at Hp-FAR-2 [4] of 3.24 µM.
